In article PMC10620963, “Two-carbon tethered artemisinin–isatin hybrids: design, synthesis, anti-breast cancer potential, and in silico study” (Frontiers in Molecular Biosciences, 2023):

Assays:
[1] = system: MDA-MB-231/ADR (Adriamycin-resistant MDA-MB-231 cell line); assay: MTT antiproliferative assay, MDA-MB-231/ADR; format: cell-based; conditions: Homo sapiens, 24 h treatment, mean ± S.D., n = 3
Protocol: (§1) The antiproliferative activity and cytotoxicity of ART–isatin hybrids 4a–k against MCF-7 (CL-0149, purchased from Procell), MDA-MB-231 (CL-0150A, purchased from Procell), and MDA-MB-231/ADR (AC337895, purchased from CASMART) breast cancer cell lines, as well as MCF-10A (CL-0525, purchased from Procell), were assessed by the 3-(4,5-dimethylthiazol-2-yl)-2,5-diphenyltetrazolium bromide (MTT) assay. ART, DHA, and Adriamycin (ADR) were used as positive controls. The selectivity index (SI: IC50(MCF-10A)/IC50(MCF-7)) and resistance index (RI: IC50(MDA-MB-231/ADR)/IC50(MDA-MB-231)) are presented in Table 3.
(§2) MCF-7, MDA-MB-231 and MDA-MB-231/ADR breast cancer cells (2×10^3) were plated in each well of a 96-well plate and were allowed to adhere and spread for 24 h. Cells were treated with a range of different concentrations of ART-isatin hybrids 4a-k (1, 5, 10, 20, 50, 100 µM) and reference drugs artemisinin, dihydroartemisinin, and adriamycin (1, 5, 10, 20, 50, 100 µM) and were cultured for 24 h at 37 °C. 3-(4,5-dimethyl-2-thiazolyl)-2,5-diphenyltetrazolium bromide (MTT) solution (10 µL) was added to each well, and the cultures were incubated for an additional 4 h. A further 100 µL of […] was added and incubation continued overnight. The absorbance was read at 540 nm in EnSpire, multimode reader and IC50 concentration was calculated and indicated as means SD of three in-dependent experiments. The percentage relative cell viability was determined according to the following formula: Percentage cell viability = A at 570 nm of treated samples/A at 570 nm of untreated samples × 100.
(§3) The statistical analysis was performed using Excel © and IC50 values were estimated using GraphpadPrism5 software (Hearne Scientific Software). The experiments were performed in duplicate and the statistical significance was calculated using the student’s t-test. A p-value of less than 0.05 was used to estimate the significance of the observations. A Z-factor was calculated for each 96-well plate and assays having Z-factor above 0.05 were included in the statistical analysis.

[2] = system: MCF-7 breast cancer cell line; assay: MTT antiproliferative assay, MCF-7; format: cell-based, human; conditions: for IC50: Homo sapiens, MCF7, MTT, 24 h treatment, mean ± S.D., n = 3
Protocol: as §1, §2, §3

[3] = system: MDA-MB-231 breast cancer cell line; assay: MTT antiproliferative assay, MDA-MB-231; format: cell-based; conditions: Homo sapiens, 24 h treatment, mean ± S.D., n = 3
Protocol: as §1, §2, §3

[4] = MTT cytotoxicity assay, MCF-10A; format: cell-based; conditions: human, MCF-10A normal breast cells, 72 h exposure
Protocol: as §1
The cytotoxicity (CC50) of ART-isatin hybrids 4a-k and reference drugs artemisinin, dihydroartemisinin, and adriamycin were examined by the MTT assay in MCF-10A cells. The compounds were dissolved in DMSO with different concentrations. The MCF-10A cells were maintained in culture medium at 37 °C under 5% CO2 atmosphere. Cells were seeded in 96-well plates (1×10^4 cell per well) and allowed to recover for 24 h. After 72 h of exposure, cells were harvested, and cell viability was assessed by MTT assay.
as §3

[5] = system: MCF-7, MDA-MB-231, and MDA-MB-231/ADR breast cancer cell lines; assay: MTT antiproliferative assay, span over the three breast cancer cell lines; format: cell-based; conditions: Homo sapiens; span over MCF-7, MDA-MB-231, MDA-MB-231/ADR; read-out: IC50 range against the three tested breast cancer cell lines
Protocol: as §1
MCF-7, MDA-MB-231 and MDA-MB-231/ADR breast cancer cells (2×10^3) were plated in each well of a 96-well plate and were allowed to adhere and spread for 24 h. […] The absorbance was read at 540 nm in EnSpire, multimode reader and IC50 concentration was calculated and indicated as means SD of three in-dependent experiments. The percentage relative cell viability was determined according to the following formula: Percentage cell viability = A at 570 nm of treated samples/A at 570 nm of untreated samples × 100.
The statistical analysis was performed using Excel © and IC50 values were estimated using GraphpadPrism5 software (Hearne Scientific Software). The experiments were performed in duplicate and the statistical significance was calculated using the student’s t-test. […]

SMILES	IC50 [1] [µM]	IC50 [2] [µM]	IC50 [3] [µM]	IC50 [5] [µM]	SI, selectivity index, IC50(MCF-10A)/IC50(MCF-7) [2]	IC50 at 72 h [4] [µM]
CON=C1C(=O)N(CCOC2O[C@@H]3O[C@@]4(C)CC[C@H]5[C@H](C)CC[C@@H]([C@H]2C)[C@@]35OO4)c2ccc(OC)cc21 (stereo partly drawn) [Hybrid 4f, 5-methoxy-3-(methoxyimino)-1-(2-(((3R,5aS,6R,8aS,9R,12R,12aR)-3,6,9-trimethyldecahydro-12H-3,12-epoxy[1,2]dioxepino[4,3-i]isochromen-10-yl)oxy)ethyl)indolin-2-one]	33.8 ± 3	37.9 ± 3.3	20.4 ± 1.7	–	>2.6	> 100
C[C@@H]1CC[C@H]2[C@@H](C)C(=O)O[C@@H]3O[C@@]4(C)CC[C@@H]1[C@]32OO4 [ART, artemisinin]	> 100	87.6 ± 6.6	72.4 ± 5.3	–	>1.1	> 100
CCON=C1C(=O)N(CCOC2O[C@@H]3O[C@@]4(C)CC[C@H]5[C@H](C)CC[C@@H]([C@H]2C)[C@@]35OO4)c2ccccc21 (stereo partly drawn) [Hybrid 4g, 3-(ethoxyimino)-1-(2-(((3R,5aS,6R,8aS,9R,12R,12aR)-3,6,9-trimethyldecahydro-12H-3,12-epoxy[1,2]dioxepino[4,3-i]isochromen-10-yl)oxy)ethyl)indolin-2-one]	28.4 ± 2.1	48.2 ± 3.7	37.6 ± 2.4	–	>2.0	> 100
C[C@@H]1CC[C@H]2[C@@H](C)C(OCCN3C(=O)C(=O)c4ccccc43)O[C@@H]3O[C@@]4(C)CC[C@@H]1[C@]32OO4 (stereo partly drawn) [Hybrid 4a, 1-(2-(((3R,5aS,6R,8aS,9R,12R,12aR)-3,6,9-trimethyldecahydro-12H-3,12-epoxy[1,2]dioxepino[4,3-i]isochromen-10-yl)oxy)ethyl)indoline-2,3-dione]	2.49 ± 0.1	12.6 ± 2.1	3.83 ± 0.1	2.49 to 12.6	>7.9	> 100
COc1ccc2c(c1)C(=O)C(=O)N2CCOC1O[C@@H]2O[C@@]3(C)CC[C@H]4[C@H](C)CC[C@@H]([C@H]1C)[C@@]24OO3 (stereo partly drawn) [Hybrid 4c, 5-methoxy-1-(2-(((3R,5aS,6R,8aS,9R,12R,12aR)-3,6,9-trimethyldecahydro-12H-3,12-epoxy[1,2]dioxepino[4,3-i]isochromen-10-yl)oxy)ethyl)indoline-2,3-dione]	25.1 ± 1.9	33.8 ± 3.2	27 ± 2.2	–	>2.9	> 100
COc1cccc2c1C(=O)c1c(O)c3c(c(O)c1C2=O)C[C@@](O)(C(=O)CO)C[C@@H]3O[C@H]1C[C@H](N)[C@H](O)[C@H](C)O1 [ADR, Adriamycin, reference compound]	> 100	18.9 ± 1.2	4.46 ± 0.1	–	3.6	68.8
CO/N=C1/C(=O)N(CCOC2O[C@@H]3O[C@@]4(C)CC[C@H]5[C@H](C)CC[C@@H]([C@H]2C)[C@@]35OO4)c2ccc(F)cc21 (stereo partly drawn) [Hybrid 4e, (E)-5-fluoro-3-(methoxyimino)-1-(2-(((3R,5aS,6R,8aS,9R,12R,12aR)-3,6,9-trimethyldecahydro-12H-3,12-epoxy[1,2]dioxepino[4,3-i]isochromen-10-yl)oxy)ethyl)indolin-2-one]	64.7 ± 4.9	73.3 ± 5.6	49.6 ± 3.8	–	>1.3	> 100
C[C@@H]1CC[C@H]2[C@@H](C)C(OCCN3C(=O)C(=O)c4cc(F)ccc43)O[C@@H]3O[C@@]4(C)CC[C@@H]1[C@]32OO4 (stereo partly drawn) [Hybrid 4b, 5-fluoro-1-(2-(((3R,5aS,6R,8aS,9R,12R,12aR)-3,6,9-trimethyldecahydro-12H-3,12-epoxy[1,2]dioxepino[4,3-i]isochromen-10-yl)oxy)ethyl)indoline-2,3-dione]	21.4 ± 3.1	26.7 ± 2.4	18.6 ± 1.5	–	>3.7	> 100
C[C@H]1[C@@H](O)O[C@@H]2O[C@@]3(C)CC[C@H]4[C@H](C)CC[C@@H]1[C@@]24OO3 [DHA, dihydroartemisinin, reference compound]	82.8 ± 6.8	73.2 ± 5.9	69.6 ± 4.7	69.6 to 89.8	>1.3	> 100
CON=C1C(=O)N(CCOC2O[C@@H]3O[C@@]4(C)CC[C@H]5[C@H](C)CC[C@@H]([C@H]2C)[C@@]35OO4)c2ccccc21 (stereo partly drawn) [Hybrid 4d, 3-(methoxyimino)-1-(2-(((3R,5aS,6R,8aS,9R,12R,12aR)-3,6,9-trimethyldecahydro-12H-3,12-epoxy[1,2]dioxepino[4,3-i]isochromen-10-yl)oxy)ethyl)indolin-2-one]	19.7 ± 1.2	28.5 ± 2.3	16.2 ± 1.8	–	>3.5	> 100

Further lines, with some results ahead:

IC50 [1] [µM]	IC50 [2] [µM]	IC50 [3] [µM]	IC50 [5] [µM]	SMILES	SI, selectivity index, IC50(MCF-10A)/IC50(MCF-7) [2]	IC50 at 72 h [4] [µM]
> 100	> 100	> 100	–	C[C@@H]1CC[C@H]2[C@@H](C)C(OCCN3C(=O)C(=NOCc4ccccc4)c4cc(F)ccc43)O[C@@H]3O[C@@]4(C)CC[C@@H]1[C@]32OO4 (stereo partly drawn) [Hybrid 4j, 3-((benzyloxy)imino)-5-fluoro-1-(2-(((3R,5aS,6R,8aS,9R,12R,12aR)-3,6,9-trimethyldecahydro-12H-3,12-epoxy[1,2]dioxepino[4,3-i]isochromen-10-yl)oxy)ethyl)indolin-2-one]	–	> 100
52.2 ± 3.6	70.8 ± 5.9	50.1 ± 4.2	–	CCON=C1C(=O)N(CCOC2O[C@@H]3O[C@@]4(C)CC[C@H]5[C@H](C)CC[C@@H]([C@H]2C)[C@@]35OO4)c2ccc(OC)cc21 (stereo partly drawn) [Hybrid 4i, 3-(ethoxyimino)-5-methoxy-1-(2-(((3R,5aS,6R,8aS,9R,12R,12aR)-3,6,9-trimethyldecahydro-12H-3,12-epoxy[1,2]dioxepino[4,3-i]isochromen-10-yl)oxy)ethyl)indolin-2-one]	>1.4	> 100
59.9 ± 4.4	68.3 ± 5.2	46.5 ± 3.9	–	CCON=C1C(=O)N(CCOC2O[C@@H]3O[C@@]4(C)CC[C@H]5[C@H](C)CC[C@@H]([C@H]2C)[C@@]35OO4)c2ccc(F)cc21 (stereo partly drawn) [Hybrid 4h, 3-(ethoxyimino)-5-fluoro-1-(2-(((3R,5aS,6R,8aS,9R,12R,12aR)-3,6,9-trimethyldecahydro-12H-3,12-epoxy[1,2]dioxepino[4,3-i]isochromen-10-yl)oxy)ethyl)indolin-2-one]	>1.4	> 100
> 100	> 100	> 100	–	COc1ccc2c(c1)/C(=N\OCc1ccccc1)C(=O)N2CCOC1O[C@@H]2O[C@@]3(C)CC[C@H]4[C@H](C)CC[C@@H]([C@H]1C)[C@@]24OO3 (stereo partly drawn) [Hybrid 4k, (E)-3-((benzyloxy)imino)-5-methoxy-1-(2-(((3R,5aS,6R,8aS,9R,12R,12aR)-3,6,9-trimethyldecahydro-12H-3,12-epoxy[1,2]dioxepino[4,3-i]isochromen-10-yl)oxy)ethyl)indolin-2-one]	–	> 100
